Measured values published in patent EP0400330A1, “Oxidation hair dyes” (Wella Aktiengesellschaft, priority 1989, dated 1990).

Legend:
[1] = Mutagenicity test battery (Ames, CA-Test, Mouse Lymphoma Test, SCE-Test), individual test not specified; format: cell-based; details: in some of the tests Ames, not said which
From the text: (§1) Der große und überraschende technische Fortschritt, der bei der Verwendung von 2-(2,5-Diaminophenyl)ethanol mit den vorstehend genannten Kupplersubstanzen erzielt werden kann, liegt vielmehr in den physiologischen Eigenschaften begründet.

[2] = Sensitising property (test not described)
From the text: Das 2-(2,5-Diaminophenyl)ethanol wird seit einiger Zeit als Bestandteil von Oxidationshaarfärbemitteln in der Patentliteratur erwähnt. Als möglicher Bestandteil von Oxidationshaarfärbemitteln ist es zum Beispiel in der eigenen europäischen Offenlegungsschrift 0 166 155 sowie in den eigenen deutschen Offenlegungsschriften 3 625 916, 3 627 398 und 3 706 565 sowie auch in der DE-OS 3 545 371 aufgeführt. Ferner fällt das 2-(2,5-Diaminophenyl)ethanol unter eine allgemeine Formel für 1-Hydroxyalkyl-2,5-diaminobenzolverbindungen, welche als Entwicklersubstanzen für Oxidationshaarfärbemittel in der eigenen europäischen Offenlegungsschrift 0 007 537 empfohlen werden. Die dort mehrfach konkret genannte Verbindung 1-Hydroxymethyl-2,5-diaminobenzol (2,5Diaminobenzylalkohol) hat sich jedoch als sensibilisierend erwiesen. Die ausgezeichnete Eignung der Entwicklersubstanz 2-(2,5-Diaminophenyl)-ethanol in Kombination mit den vorstehend genannten Kupplersubstanzen zur Lösung der gestellten Aufgabe wurde bisher nicht erkannt. Dementsprechend sind die erfindungsgemäßen EntwicklersubstanzKupplersubstanz-Kombinationen in keiner dieser Druckschriften beschrieben.
Die konkrete Darstellung des 2-(2,5-Diaminophenyl)ethanols ist bisher ebenfalls weder beschrieben noch hat diese Entwicklersubstanz Eingang in die Haarfärbepraxis gefunden. […]

CHO-Zellen = assay: Chromosome aberration test in vitro (CA-Test); format: cell-based
From the text: as §1

Mouse Lymphoma = Mouse Lymphoma Test (point mutation in vitro); format: cell-based; details: Punktmutation in vitro
From the text: as §1

[3] = test system: Salmonella typhimurium-Stämmen TA97, TA98 und TA100; assay: Ames test of dyed hair strands; format: cell-based; set-up: key: +: mutagen; (+): schwach mutagen; -: nicht mutagen; details: hair dyed 30 Minuten at 40 Grad Celsius, in Anwesenheit von S9-Mix
From the text: Versuchsbedingungen: Haarsträhnchen aus 30-50 Haaren werden mit einem Mittel nach Beispiel 1, bei dem die Kupplersubstanz jeweils im äquimolaren Verhältnis zur Entwicklersubstanz enthalten war, getränkt. Die Strähnen wurden anschließend 30 Minuten lang bei 40 Grad Celsius im Klimaschrank aufbewahrt, sodann gründlich mit Wasser gespült und schließlich getrocknet. Die so gefärbten Haar wurden nun im 2,5 cm lange Stücke geschnitten und nach der Methodik von B.N. Ames an Salmonella typhimurium-Stämmen TA97, TA98 und TA100 in Anwesenheit von S9-Mix geprüft.

Salmonella typhimurium [4] = assay: Ames test of hair dye solutions under oxidative conditions; details: hair dye solution containing the developer substance, unter oxidativen Bedingungen
[5] = Sister-Chromatide-Exchange-Test (SCE-Test); format: cell-based
From the text: as §1

Salmonella typhimurium [6] = assay: Ames mutagenicity test of the developer substance; format: cell-based
From the text: as §1

[7] = Kupplersubstanz 2-Methylresorcin, äquimolar to the developer
[8] = Kupplersubstanz 3,4-Methylendioxyphenol, äquimolar to the developer
[9] = Kupplersubstanz 3-Aminophenol, äquimolar to the developer
[10] = Kupplersubstanz Resorcin, äquimolar to the developer

SMILES	Mutagenität in einigen dieser Teste [1]	sensibilisierende Eigenschaften [2]	Mutagenität im Chromosomenaberrationstest an CHO-Zellen in vitro (CA-Test) (CHO-Zellen)	Mutagenität im Mouse Lymphoma Test (Mouse Lymphoma)	Amesteste von gefärbten Haarsträhnen [3, 7]	Amesteste von gefärbten Haarsträhnen [3, 8]	Amesteste von gefärbten Haarsträhnen [3, 9]	Amesteste von gefärbten Haarsträhnen [3, 10]	Amesteste von gefärbten Haarsträhnen ([3]; ohne Kupplersubstanz)	mutagene Wirkung von Haarfärbelösungen im Amestest (Salmonella typhimurium [4])	Mutagenität im Sister-Chromatide-Exchange-Test (SCE-Test) [5]	Mutagenität im Mutagenitätstest nach Ames (Salmonella typhimurium [6]; in Abwesenheit von Wasserstoffperoxid)	Mutagenität im Mutagenitätstest nach Ames (Salmonella typhimurium [6]; in Anwesenheit von Wasserstoffperoxid)
Nc1ccc(N)c(CO)c1 [2,5-Diaminobenzylalkohol, 1-Hydroxymethyl-2,5-diaminobenzol]	mutagenes Potential	sensibilisierend											
Nc1ccc(N)c(CCO)c1 [2-(2,5-Diaminophenyl)ethanol]			keinerlei Mutagenität	keinerlei Mutagenität	-	-	-	-	-	nicht mutagen	keinerlei Mutagenität	keinerlei Mutagenität	keinerlei Mutagenität
Nc1ccc(N)cc1 [p-Phenylendiamin, reference compound]					+	+	(+)	(+)	+	mutagenes Potential			
